From patent US8192962B2, “Processes for detecting toxic substances” (Daikin Industries, Ltd., priority 2001, dated 2012)

Test system: DNA repair protein genes
Test: DNA chip mRNA expression in yeast, DNA repair protein genes (Table 3)
Format: cell-based, Saccharomyces cerevisiae S288C
Conditions: incubated two hours, concentrations as in the 1st table
Summary of the method: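 Expression change after 2 h toxicant exposure (growth-inhibiting, sub-lethal) of log-phase S. cerevisiae S288C at 25° C. Oligo-dT-purified mRNA was labeled with Cy3-dUTP or Cy5-dUTP and hybridized >12 h at 65° C. to a genome-wide chip; ratio of scanned fluorescence to control.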

## O=[N+]([O-])c1cc[n+]([O-])c2ccccc12 [(5), 4-nitroquinolin-N-oxide]
Yeast gene YAL015C
  The level of expressed mRNA in the presence of chemical substance/The level of expressed mRNA in the absence of chemical substance: 1.1
Yeast gene YAR007C
  The level of expressed mRNA in the presence of chemical substance/The level of expressed mRNA in the absence of chemical substance: 1.5
Yeast gene YBL019W
  The level of expressed mRNA in the presence of chemical substance/The level of expressed mRNA in the absence of chemical substance: 1.0
Yeast gene YBR073W
  The level of expressed mRNA in the presence of chemical substance/The level of expressed mRNA in the absence of chemical substance: 1.2
Yeast gene YBR272C
  The level of expressed mRNA in the presence of chemical substance/The level of expressed mRNA in the absence of chemical substance: 1.1
Yeast gene YCR014C
  The level of expressed mRNA in the presence of chemical substance/The level of expressed mRNA in the absence of chemical substance: 1.2
Yeast gene YDL017W
  The level of expressed mRNA in the presence of chemical substance/The level of expressed mRNA in the absence of chemical substance: 1.2
Yeast gene YDL059C
  The level of expressed mRNA in the presence of chemical substance/The level of expressed mRNA in the absence of chemical substance: 1.2
Yeast gene YDL200C
  The level of expressed mRNA in the presence of chemical substance/The level of expressed mRNA in the absence of chemical substance: 1.1
Yeast gene YDR054C
  The level of expressed mRNA in the presence of chemical substance/The level of expressed mRNA in the absence of chemical substance: 0.7
Yeast gene YDR369C
  The level of expressed mRNA in the presence of chemical substance/The level of expressed mRNA in the absence of chemical substance: 1.0
Yeast gene YEL019C
  The level of expressed mRNA in the presence of chemical substance/The level of expressed mRNA in the absence of chemical substance: 0.9
Yeast gene YEL037C
  The level of expressed mRNA in the presence of chemical substance/The level of expressed mRNA in the absence of chemical substance: 0.5
Yeast gene YER162C
  The level of expressed mRNA in the presence of chemical substance/The level of expressed mRNA in the absence of chemical substance: 0.9
Yeast gene YFL014W
  The level of expressed mRNA in the presence of chemical substance/The level of expressed mRNA in the absence of chemical substance: 1.0
Yeast gene YGL058W
  The level of expressed mRNA in the presence of chemical substance/The level of expressed mRNA in the absence of chemical substance: 1.0
Yeast gene YGL091C
  The level of expressed mRNA in the presence of chemical substance/The level of expressed mRNA in the absence of chemical substance: 0.8
Yeast gene YGL127C
  The level of expressed mRNA in the presence of chemical substance/The level of expressed mRNA in the absence of chemical substance: 1.3
Yeast gene YGL163C
  The level of expressed mRNA in the presence of chemical substance/The level of expressed mRNA in the absence of chemical substance: 1.5
Yeast gene YGL249W
  The level of expressed mRNA in the presence of chemical substance/The level of expressed mRNA in the absence of chemical substance: 1.1
Yeast gene YGR180C
  The level of expressed mRNA in the presence of chemical substance/The level of expressed mRNA in the absence of chemical substance: 2.0
Yeast gene YGR231C
  The level of expressed mRNA in the presence of chemical substance/The level of expressed mRNA in the absence of chemical substance: 1.3
Yeast gene YGR258C
  The level of expressed mRNA in the presence of chemical substance/The level of expressed mRNA in the absence of chemical substance: 1.5
Yeast gene YHR164C
  The level of expressed mRNA in the presence of chemical substance/The level of expressed mRNA in the absence of chemical substance: 0.9
Yeast gene YIL036W
  The level of expressed mRNA in the presence of chemical substance/The level of expressed mRNA in the absence of chemical substance: 0.9
Yeast gene YIL072W
  The level of expressed mRNA in the presence of chemical substance/The level of expressed mRNA in the absence of chemical substance: 1.5
Yeast gene YIL143C
  The level of expressed mRNA in the presence of chemical substance/The level of expressed mRNA in the absence of chemical substance: 0.8
Yeast gene YIL153W
  The level of expressed mRNA in the presence of chemical substance/The level of expressed mRNA in the absence of chemical substance: 1.0
Yeast gene YIR002C
  The level of expressed mRNA in the presence of chemical substance/The level of expressed mRNA in the absence of chemical substance: 1.2
Yeast gene YJL026W
  The level of expressed mRNA in the presence of chemical substance/The level of expressed mRNA in the absence of chemical substance: 1.7
Yeast gene YJR046W
  The level of expressed mRNA in the presence of chemical substance/The level of expressed mRNA in the absence of chemical substance: 0.8
Yeast gene YJR052W
  The level of expressed mRNA in the presence of chemical substance/The level of expressed mRNA in the absence of chemical substance: 1.0
Yeast gene YKL145W
  The level of expressed mRNA in the presence of chemical substance/The level of expressed mRNA in the absence of chemical substance: 1.4
Yeast gene YLR103C
  The level of expressed mRNA in the presence of chemical substance/The level of expressed mRNA in the absence of chemical substance: 1.0
Yeast gene YLR233C
  The level of expressed mRNA in the presence of chemical substance/The level of expressed mRNA in the absence of chemical substance: 1.2
Yeast gene YLR288C
  The level of expressed mRNA in the presence of chemical substance/The level of expressed mRNA in the absence of chemical substance: 1.7
Yeast gene YML032C
  The level of expressed mRNA in the presence of chemical substance/The level of expressed mRNA in the absence of chemical substance: 1.0
Yeast gene YML058W
  The level of expressed mRNA in the presence of chemical substance/The level of expressed mRNA in the absence of chemical substance: 0.6
Yeast gene YMR035W
  The level of expressed mRNA in the presence of chemical substance/The level of expressed mRNA in the absence of chemical substance: 0.8
Yeast gene YMR072W
  The level of expressed mRNA in the presence of chemical substance/The level of expressed mRNA in the absence of chemical substance: 1.7
Yeast gene YMR096W
  The level of expressed mRNA in the presence of chemical substance/The level of expressed mRNA in the absence of chemical substance: 1.0
Yeast gene YMR284W
  The level of expressed mRNA in the presence of chemical substance/The level of expressed mRNA in the absence of chemical substance: 0.8
Yeast gene YNL213C
  The level of expressed mRNA in the presence of chemical substance/The level of expressed mRNA in the absence of chemical substance: 1.3
Yeast gene YNL250W
  The level of expressed mRNA in the presence of chemical substance/The level of expressed mRNA in the absence of chemical substance: 0.8
Yeast gene YNL261W
  The level of expressed mRNA in the presence of chemical substance/The level of expressed mRNA in the absence of chemical substance: 0.7
Yeast gene YNL312W
  The level of expressed mRNA in the presence of chemical substance/The level of expressed mRNA in the absence of chemical substance: 1.4
Yeast gene YOL043C
  The level of expressed mRNA in the presence of chemical substance/The level of expressed mRNA in the absence of chemical substance: 1.2
Yeast gene YOR005C
  The level of expressed mRNA in the presence of chemical substance/The level of expressed mRNA in the absence of chemical substance: 1.3
Yeast gene YOR386W
  The level of expressed mRNA in the presence of chemical substance/The level of expressed mRNA in the absence of chemical substance: 1.2
Yeast gene YPL022W
  The level of expressed mRNA in the presence of chemical substance/The level of expressed mRNA in the absence of chemical substance: 0.8
Yeast gene YPL164C
  The level of expressed mRNA in the presence of chemical substance/The level of expressed mRNA in the absence of chemical substance: 1.2
Yeast gene YPL194W
  The level of expressed mRNA in the presence of chemical substance/The level of expressed mRNA in the absence of chemical substance: 1.3
Yeast gene YPR025C
  The level of expressed mRNA in the presence of chemical substance/The level of expressed mRNA in the absence of chemical substance: 1.6
